We go through 1 compound from article PMC13327620, “A Deep‐Red‐Absorbing Osmium(II) Complex as a Photosensitizer for Photodynamic Therapy Inducing Immunogenic Cell Death” (Angewandte Chemie (International Ed. in English), 2026).

Read-outs that look alike come from different tables or passages of the source.

One experiment concerns CT26 cells. The experiment in a line: ICD in vitro, summary of the three hallmarks. Format: cell-based, mouse. On the procedure: A weak ICD was present in cells treated with 6.12 µM Os2 in the dark (limited translocation of CRT) and Ce6‐treated cells under 770 nm light (partial release of HMGB‐1).
Another experiment has as its system ATP release. Nature of the experiment: Detection of extracellular ATP in CT26 cells. It counts as cell-based, mouse. The note with it: CT26, irradiated at 740 nm. On the procedure: We finally measured ATP release, another important event in ICD, using a bioluminescence detection kit (Figure 3E).
Scientific, Catalog no.15 5411) at a d ensity of 8,00 0 cells p er well and cultu red fo r 24 h at 37 °C with 5 % CO2. T he cells wer e then treated with a solution of the compounds at a concentration corresponding to the IC50 for 4 h. After refreshing the medium, cells were subjected to irradiation and incubated for an additional 12 h. Subsequently, the cells were fix ed with 4% paraformaldehyde and immunostained with Anti- Calreticulin antibody (Abcam, Catalog no. ab2907) diluted 1/1000 at 4 °C overnight. Cells were then washed three times with PBS, treated with Goat Anti- Rabbit IgG H&L (Alexa […]
temperature in the dark, washed in PBS and treat ed with 10 µg/mL Hoechst for 15 min.
After a final wash, cells were analyzed by confocal microscopy as det ailed above. […]
incubated for 24 h. Cells were then treat ed with the determined IC50 of complexes and irradiated or kept in the dark. Supernatants were collected 12 h post-t reatm ent, and the extracellular ATP content was measured with Adenosine 5′ -triphosphate (ATP) Bioluminescent Assay Kit (Sigma-Aldrich) according tomanufacturer ’s ins truction. […]
556419) and PI (BD Biosciences, Catalog no.51- 66211E). CT26- luc cells were analyzed by flow cytometry (Beckm an Coulter Life Sciences, CytoFLEX LX Flow Cytometer). […]

Experiment [1] deals with human glioblastoma cells (U-87 MG). Nature of the experiment: Resazurin cell viability assay, (photo)cytotoxicity, normoxia. The note with it: for IC50: Homo sapiens. Format: cell-based. On the procedure: (100 U ml−1), streptomycin (100 U ml−1), and 1% L-glutamine. […]
All cells were incubated at 37 °C in a humidified atmosphere with 5 % CO2.
Normoxia. The in vitro viability of cells exposed to the complexes was determined using a resazurin assay. C ells were seeded in 96-well plates at densities of 4,000 cells/well for CT26, MC A205 and U-87 MG cells, and 8,000 cells/well for MRC-5 and NIH/3T3 cells. A fter 24 h of growth at 37 °C wit h 5% CO2, the medium was replaced with fresh medium containing various concentrations of the compounds . Following a 4- h incubation in the dark, the medium was refres hed , and the plates were exposed to irradiation usinga LUM OS -BIO photoreactor (At las Photonics).N on- ir rad iated plates were similarly refr eshed with medium and kept in the dark for the same duration. After a 40- h r ecov ery period, a f reshly pr epar ed resazurin solution (0.2 mg/mL) was added to each well, and the plates were left in the dark for 4 h before analysis on a B i o Te k Cytation 5 Cell Imaging Multimode Reader (Agil ent Technologies). […]

Regarding `C=Cc1c(C)c2cc3nc(c(CC(=O)O)c4[nH]c(cc5nc(cc1[nH]2)C(C)=C5CC)c(C)c4C(=O)O)[C@@H](CCC(=O)O)[C@@H]3C` [Ce6, chlorin e6], the “ICD (all three hallmarks)” value with CT26 cells (CT26, 770 nm light) was “weak ICD”; with CT26 cells (CT26, illumination at 740 nm), “strong ICD”. For the same compound, the ATP release entry in the experiment on ATP release is listed as “significantly enhanced ATP release”. Also, the PI in experiment [1] (740 nm) is 28; in experiment [1] (770 nm), 8. The IC50 (usually the concentration at which inhibition is half-maximal) is 116 ± 6.99 µM in experiment [1] (dark, read-out: IC50 Dark); 4.15 ± 0.06 µM in experiment [1] (light or radiation study, 1 h, 740 nm, 1.12 mW/cm2, 60 min, 12.60 J/cm2, read-out: IC50 740 nm); 14 ± 3.14 µM in experiment [1] (light or radiation study, 2 h, 770 nm, 0.68 mW/cm2, 120 min, 15.30 J/cm2, read-out: IC50 770 nm).
